The text below walks through data of ChEMBL document CHEMBL1201862, “PubChem BioAssay data set” (2004).

Each structure is given as a SMILES string.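 Each compound was tested at five concentrations against cells in 96-well plates for 48 hours. Abbreviation: GI50, concentration required for 50% inhibition of growth.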 Calls of active or inactive are those of the source. Rule as the data show it: active = GI50 up to about 1.1 µM and inactive = higher. Bounds are passed on as bounds.

Some test systems named below: CAKI-1; Malme-3M; SK-MEL-2; SF-539; MOLT-4; COLO 205; KM12; UACC-257; OVCAR-5; HL-60; SK-OV-3; HOP-62; OVCAR-3; NCI-H23; SK-MEL-5; HCT-15; HT-29; RXF 393; OVCAR-4; UO-31.
Common to all, as to assay: inhibition of tumour cell growth, NCI panel, 48 h

As for `Cn1c(=O)[nH]c2nncnc2c1=O`, the GI50 was 11 µM (inactive) in the experiment on CAKI-1; 44.7 µM (inactive) in the experiment on Malme-3M; 120 µM (inactive) with SK-MEL-2; 64.9 µM (inactive) in the experiment on SF-539; 181 µM (inactive) in the experiment with MOLT-4; 69.2 µM (inactive) in the experiment with COLO 205. In addition, the GI50 with KM12 is 23.8 µM (inactive); with UACC-257 it was 75.3 µM (inactive); in the experiment on OVCAR-5, 186 µM (inactive); with HL-60, 27.9 µM (inactive); with SK-OV-3, 146 µM (inactive); with HOP-62 it was 34.4 µM (inactive). Also, the GI50 is 78.9 µM (inactive) in the experiment with OVCAR-3; 179 µM (inactive) with NCI-H23; 92.5 µM (inactive) in the experiment on SK-MEL-5; 299 µM in the experiment on HCT-15; 114 µM (inactive) in the experiment on HT-29; 19.3 µM (inactive) in the experiment with RXF 393. Moreover, the GI50 in the experiment on OVCAR-4 is 85.5 µM (inactive); in the experiment with UO-31, 46 µM (inactive).

Consider `Nc1cccc2c1C1=NNC(=O)CC1C2` (stereo unspecified), for which the GI50 with CAKI-1, in the experiment on Malme-3M, with SK-MEL-2, in the experiment on SF-539, in the experiment with MOLT-4 and in the experiment on COLO 205 was > 100 µM (inactive) in each case. Besides, the GI50 is > 100 µM (inactive) in the experiment with KM12; > 100 µM (inactive) with UACC-257; > 100 µM (inactive) with OVCAR-5; > 66.5 µM (inactive) in the experiment on HL-60; > 100 µM (inactive) in the experiment on SK-OV-3; > 66.5 µM (inactive) with HOP-62. Also, the GI50 in the experiment on OVCAR-3 was > 100 µM (inactive); with SK-MEL-5, > 100 µM (inactive); in the experiment with HCT-15 it was over 100 µM; with RXF 393, > 100 µM (inactive); in the experiment on OVCAR-4 it was > 100 µM (inactive); in the experiment with UO-31, > 100 µM (inactive).

With `c1ccc2c(c1)OCCc1cn[nH]c1-2`, the GI50 in the experiment on CAKI-1 was 0.452 µM (active); in the experiment on Malme-3M it was > 100 µM (inactive); in the experiment on SK-MEL-2 it was > 100 µM (inactive); with SF-539 it was > 100 µM (inactive); with MOLT-4, > 100 µM (inactive); in the experiment on COLO 205, > 100 µM (inactive). The GI50 was > 100 µM (inactive) in the experiment on KM12; > 100 µM (inactive) with UACC-257; > 100 µM (inactive) with OVCAR-5; 60.3 µM (inactive) with HL-60; > 100 µM (inactive) in the experiment with SK-OV-3; > 61.7 µM (inactive) with HOP-62. Also, the GI50 in the experiment with OVCAR-3 is > 100 µM (inactive); in the experiment on NCI-H23, > 100 µM (inactive); with SK-MEL-5, > 100 µM (inactive); in the experiment with HCT-15, over 100 µM; in the experiment on HT-29, > 100 µM (inactive); in the experiment on RXF 393, > 69.2 µM (inactive). Moreover, the GI50 in the experiment on OVCAR-4 and in the experiment on UO-31 was > 100 µM (inactive) in each case.

As for `CNC(=O)SCC(N)C(=O)O` (stereo unspecified), the GI50 in the experiment with CAKI-1 is 65.8 µM (inactive); in the experiment on Malme-3M, > 100 µM (inactive); in the experiment on SK-MEL-2, > 82 µM (inactive); in the experiment on SF-539 it was > 100 µM (inactive); in the experiment on MOLT-4, 38.2 µM (inactive); in the experiment on COLO 205 it was 61.1 µM (inactive). The GI50 in the experiment on KM12 was > 100 µM (inactive); in the experiment with UACC-257 it was > 100 µM (inactive); with OVCAR-5, > 100 µM (inactive); in the experiment with HL-60, 25.2 µM (inactive); in the experiment with SK-OV-3, > 100 µM (inactive); with HOP-62 it was > 100 µM (inactive). Besides, the GI50 with OVCAR-3 was > 100 µM (inactive); with NCI-H23, > 84.1 µM (inactive); in the experiment on SK-MEL-5, > 78.7 µM (inactive); in the experiment with HCT-15, 46 µM; in the experiment on HT-29 it was > 71.3 µM (inactive); with RXF 393, > 100 µM (inactive). Moreover, the GI50 in the experiment on OVCAR-4 and with UO-31 was > 100 µM (inactive) in each case.

On to `COc1ccc2c(c1O)-c1cc(O)cc3c1[C@@H](C2)N(C)CC3`, for which the GI50 with CAKI-1 is 12.3 µM (inactive); in the experiment with Malme-3M, 64 µM (inactive); in the experiment on SK-MEL-2, 27.5 µM (inactive); with SF-539 it was 81.1 µM (inactive); in the experiment with MOLT-4, 66.1 µM (inactive); in the experiment on COLO 205 it was 50.7 µM (inactive). The GI50 in the experiment on KM12 was 54.8 µM (inactive); with UACC-257, 71 µM (inactive); in the experiment on OVCAR-5, 6.41 µM (inactive); with HL-60, 11 µM (inactive); in the experiment with SK-OV-3 it was 203 µM (inactive); with HOP-62, 32.9 µM (inactive). Moreover, the GI50 in the experiment with OVCAR-3 was 55.8 µM (inactive); in the experiment on NCI-H23 it was 96.8 µM (inactive); in the experiment with SK-MEL-5, 62.2 µM (inactive); with HCT-15, 71.1 µM; in the experiment with HT-29, > 92.3 µM (inactive); in the experiment on RXF 393 it was 55.7 µM (inactive). Also, the GI50 is 60.5 µM (inactive) in the experiment on OVCAR-4 and 44.2 µM (inactive) in the experiment with UO-31.

As to `COc1cc(-c2cc(=O)c3c(O)c(CC=C(C)C)c(O)cc3o2)ccc1O`, the GI50 was 10 µM (inactive) with CAKI-1; 13.5 µM (inactive) in the experiment with Malme-3M; 23.6 µM (inactive) in the experiment on SK-MEL-2; 16.9 µM (inactive) with SF-539; 16.3 µM (inactive) in the experiment with MOLT-4; > 50 µM (inactive) with COLO 205. The GI50 was > 50 µM (inactive) in the experiment with UACC-257; > 50 µM (inactive) in the experiment with OVCAR-5; > 50 µM (inactive) in the experiment on HL-60; 32.3 µM (inactive) in the experiment on SK-OV-3; 24.2 µM (inactive) in the experiment on HOP-62; 14.9 µM (inactive) in the experiment with OVCAR-3. In addition, the GI50 was > 50 µM (inactive) in the experiment on NCI-H23; 14.6 µM (inactive) in the experiment with SK-MEL-5; 15 µM in the experiment on HCT-15; > 50 µM (inactive) in the experiment with HT-29; 24.4 µM (inactive) in the experiment on RXF 393; 15.8 µM (inactive) in the experiment with OVCAR-4. The GI50 in the experiment with UO-31 was 33.5 µM (inactive).

Turning to `Cc1ccc(C)c(C(=O)CC2OC(O)C(Cl)C2Cl)c1` (stereo unspecified), the GI50 in the experiment on CAKI-1 is 30.4 µM (inactive); in the experiment on Malme-3M, 67.5 µM (inactive); in the experiment with SK-MEL-2, 84.5 µM (inactive); in the experiment with SF-539, 24 µM (inactive); in the experiment on MOLT-4 it was 8.65 µM (inactive); in the experiment with COLO 205, > 100 µM (inactive). The GI50 is > 100 µM (inactive) in the experiment with KM12; > 100 µM (inactive) with UACC-257; > 100 µM (inactive) in the experiment with OVCAR-5; 20.6 µM (inactive) in the experiment on HL-60; > 100 µM (inactive) in the experiment with SK-OV-3; > 100 µM (inactive) in the experiment on HOP-62. Also, the GI50 in the experiment on OVCAR-3 is 36.6 µM (inactive); in the experiment with NCI-H23 it was > 100 µM (inactive); with SK-MEL-5 it was > 100 µM (inactive); with HCT-15 it was 34.8 µM; with HT-29, > 100 µM (inactive); with RXF 393 it was 26.2 µM (inactive). Further, the GI50 in the experiment with OVCAR-4 and in the experiment on UO-31 was > 100 µM (inactive) each time.

`O=C(Nc1ccccc1F)c1c(O)nc2sccn2c1=O`: the GI50 with CAKI-1, in the experiment on Malme-3M, in the experiment on SK-MEL-2, in the experiment on SF-539, in the experiment on MOLT-4 and with COLO 205 was > 10 µM (inactive) in each case. The GI50 with KM12, in the experiment on OVCAR-5, in the experiment with HL-60, in the experiment on SK-OV-3, in the experiment with HOP-62 and with OVCAR-3 was > 10 µM (inactive) throughout. Also, the GI50 is > 10 µM (inactive) in the experiment on NCI-H23; > 10 µM (inactive) with SK-MEL-5; over 10 µM in the experiment on HCT-15; > 10 µM (inactive) in the experiment on HT-29; > 10 µM (inactive) with RXF 393; > 10 µM (inactive) in the experiment on OVCAR-4. In addition, the GI50 in the experiment with UO-31 was > 10 µM (inactive).
